Each molecule was assayed against T1, human acetyl-CoA carboxylase 2 (ACC2) (Homo sapiens, UniProt O00763) (assay: Acetyl-CoA carboxylase enzyme assay (malonyl-CoA formation by LC/MS/MS)). Details: recombinant human ACC2 (aa 144-2458); read-out: IC50 ACC2.
T1 construct: The cDNA encoding amino acids 144 to 2458 of human acetyl-CoA carboxylase 2; made in house; host or cells: Sf9 insect cells (baculovirus, pFastBac1)
Format: biochemical
How it was run: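 Malonyl-CoA formation was read by LC/MS/MS MRM against a [13C3]-malonyl-CoA internal standard, after acetic acid quench. The enzyme was baculovirus/Sf9-expressed human ACC2 residues 144–2458, given 15 minutes room-temperature compound preincubation in HEPES pH 7.5 buffer with MgCl2, citrate and DTT. Substrate solution held 50 μM acetyl-CoA, 120 μM ATP and 2 mM KHCO3.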

T1 sequence (O00763 144-2458): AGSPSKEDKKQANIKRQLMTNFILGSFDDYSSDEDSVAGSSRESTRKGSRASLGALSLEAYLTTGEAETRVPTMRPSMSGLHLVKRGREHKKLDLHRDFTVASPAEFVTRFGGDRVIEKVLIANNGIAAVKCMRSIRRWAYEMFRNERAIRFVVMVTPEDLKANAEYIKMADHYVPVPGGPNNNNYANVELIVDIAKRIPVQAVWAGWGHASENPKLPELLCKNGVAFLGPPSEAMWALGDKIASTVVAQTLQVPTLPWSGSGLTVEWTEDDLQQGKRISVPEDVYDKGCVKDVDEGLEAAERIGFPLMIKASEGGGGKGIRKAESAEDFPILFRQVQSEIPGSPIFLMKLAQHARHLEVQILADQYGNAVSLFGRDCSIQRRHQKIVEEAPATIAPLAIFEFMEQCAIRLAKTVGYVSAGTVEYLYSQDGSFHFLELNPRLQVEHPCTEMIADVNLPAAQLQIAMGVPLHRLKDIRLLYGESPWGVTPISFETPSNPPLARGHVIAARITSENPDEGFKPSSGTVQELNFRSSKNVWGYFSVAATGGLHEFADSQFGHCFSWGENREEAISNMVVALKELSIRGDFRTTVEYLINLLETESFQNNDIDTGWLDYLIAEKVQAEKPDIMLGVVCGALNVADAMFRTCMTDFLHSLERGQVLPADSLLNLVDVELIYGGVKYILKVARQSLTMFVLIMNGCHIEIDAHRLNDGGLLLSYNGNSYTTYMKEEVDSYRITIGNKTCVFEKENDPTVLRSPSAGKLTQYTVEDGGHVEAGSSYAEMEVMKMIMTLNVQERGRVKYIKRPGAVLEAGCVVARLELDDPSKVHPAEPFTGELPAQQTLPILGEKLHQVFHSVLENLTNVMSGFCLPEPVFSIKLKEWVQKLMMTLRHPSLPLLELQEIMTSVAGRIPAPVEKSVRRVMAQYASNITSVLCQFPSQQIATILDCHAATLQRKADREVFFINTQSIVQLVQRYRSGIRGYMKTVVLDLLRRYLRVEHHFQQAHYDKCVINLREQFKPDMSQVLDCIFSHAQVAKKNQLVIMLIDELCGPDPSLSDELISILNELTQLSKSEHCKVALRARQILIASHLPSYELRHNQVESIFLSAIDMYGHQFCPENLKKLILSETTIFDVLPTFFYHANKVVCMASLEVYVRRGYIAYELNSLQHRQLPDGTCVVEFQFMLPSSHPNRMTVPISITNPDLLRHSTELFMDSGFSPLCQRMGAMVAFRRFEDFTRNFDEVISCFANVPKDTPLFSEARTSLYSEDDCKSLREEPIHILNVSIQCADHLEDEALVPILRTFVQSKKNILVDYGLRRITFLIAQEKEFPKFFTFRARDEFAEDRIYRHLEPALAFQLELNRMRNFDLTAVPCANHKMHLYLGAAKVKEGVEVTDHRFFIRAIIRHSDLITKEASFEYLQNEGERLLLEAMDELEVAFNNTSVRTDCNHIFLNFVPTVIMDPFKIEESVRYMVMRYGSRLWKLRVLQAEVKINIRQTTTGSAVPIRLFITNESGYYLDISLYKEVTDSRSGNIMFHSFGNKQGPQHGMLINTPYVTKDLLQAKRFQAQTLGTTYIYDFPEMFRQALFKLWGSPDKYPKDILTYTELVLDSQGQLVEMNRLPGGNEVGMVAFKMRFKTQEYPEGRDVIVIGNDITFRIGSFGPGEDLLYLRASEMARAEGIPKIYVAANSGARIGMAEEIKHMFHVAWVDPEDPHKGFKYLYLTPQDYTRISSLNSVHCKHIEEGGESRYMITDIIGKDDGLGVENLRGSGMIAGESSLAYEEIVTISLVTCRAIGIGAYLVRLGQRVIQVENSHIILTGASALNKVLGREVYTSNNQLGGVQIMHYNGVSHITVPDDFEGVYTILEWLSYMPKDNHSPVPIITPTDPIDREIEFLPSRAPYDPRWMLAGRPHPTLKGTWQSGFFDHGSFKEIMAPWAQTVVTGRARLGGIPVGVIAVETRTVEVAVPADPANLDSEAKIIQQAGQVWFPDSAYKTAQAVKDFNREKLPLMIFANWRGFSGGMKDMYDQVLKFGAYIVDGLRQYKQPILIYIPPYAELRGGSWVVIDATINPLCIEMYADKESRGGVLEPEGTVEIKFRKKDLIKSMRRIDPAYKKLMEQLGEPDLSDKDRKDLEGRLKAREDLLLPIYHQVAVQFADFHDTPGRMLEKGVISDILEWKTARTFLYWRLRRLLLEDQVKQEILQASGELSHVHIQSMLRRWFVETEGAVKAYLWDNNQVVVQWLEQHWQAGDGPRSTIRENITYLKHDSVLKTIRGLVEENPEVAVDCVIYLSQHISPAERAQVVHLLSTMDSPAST

Row | Compound | IC50 [nM]
1 | CC(C)(C)c1nnc([C@H]2CC[C@H](NS(=O)(=O)c3ccc4[nH]c(-c5cccnc5)nc4c3)CC2)o1 [Example 653, N-((1r,4r)-4-(5-tert-butyl-1,3,4-oxadiazol-2-yl)cyclohexyl)-2-(pyridin-3-yl)-1H-benzo[d]imidazole-5-sulfonamide] | 2030
2 | CC(C)(C)c1nnc([C@H]2CC[C@H](NS(=O)(=O)c3ccc4[nH]c(Nc5cccnc5)nc4c3)CC2)o1 [Example 654, N-((1r,4r)-4-(5-tert-butyl-1,3,4-oxadiazol-2-yl)cyclohexyl)-2-(pyridin-3-ylamino)-1H-benzo[d]imidazole-5-sulfonamide] | 158
3 | CC(C)(C)c1nnc([C@H]2CC[C@H](NS(=O)(=O)c3ccc4[nH]c(-c5ccc(N6CCNCC6)cc5)nc4c3)CC2)o1 [Example 655, N-((1r,4r)-4-(5-tert-butyl-1,3,4-oxadiazol-2-yl)cyclohexyl)-2-(4-(piperazin-1-yl)phenyl)-1H-benzo[d]imidazole-5-sulfonamide] | 141
4 | CC(C)(C)c1nnc([C@H]2CC[C@H](NS(=O)(=O)c3ccc4[nH]c(-c5ccc(C(=O)O)cc5)nc4c3)CC2)o1 [Example 656, 4-(5-(N-((1r,4r)-4-(5-tert-butyl-1,3,4-oxadiazol-2-yl)cyclohexyl)sulfamoyl)-1H-benzo[d]imidazol-2-yl)benzoic acid] | 870
5 | Cc1nc2cc(S(=O)(=O)N[C@H]3CC[C@H](c4nnc(C(C)(C)C)o4)CC3)ccc2n1Cc1ccccc1 [Example 657, 1-benzyl-N-((1r,4r)-4-(5-tert-butyl-1,3,4-oxadiazol-2-yl)cyclohexyl)-2-methyl-1H-benzo[d]imidazole-5-sulfonamide] | > 35000
6 | Cc1nc2ccc(S(=O)(=O)N[C@H]3CC[C@H](C(=O)N4CCOCC4)CC3)cc2s1 [Example 658, 2-methyl-N-((1r,4r)-4-(morpholine-4-carbonyl)cyclohexyl)benzo[d]thiazole-6-sulfonamide] | 71700
7 | C[C@@H](NC(=O)[C@H]1CC[C@H](NS(=O)(=O)c2ccc3[nH]c(=O)oc3c2)CC1)c1ccc(F)cc1 [Example 659, (1r,4R)-N-((R)-1-(4-fluorophenyl)ethyl)-4-(2-oxo-2,3-dihydrobenzo[d]oxazole-6-sulfonamido)cyclohexanecarboxamide] | 378
8 | Cc1nc2ccc(S(=O)(=O)N[C@H]3CC[C@H](C(=O)N[C@H](C)c4ccc(F)cc4)CC3)cc2s1 [Example 660, (1r,4R)-N-((R)-1-(4-fluorophenyl)ethyl)-4-(2-methylbenzo[d]thiazole-6-sulfonamido)cyclohexanecarboxamide] | 242
9 | C[C@@H](NC(=O)[C@H]1CC[C@H](NS(=O)(=O)c2ccc3c(c2)OCO3)CC1)c1ccc(F)cc1 [Example 661, (1r,4R)-4-(benzo[d][1,3]dioxole-5-sulfonamido)-N-((R)-1-(4-fluorophenyl)ethyl)cyclohexanecarboxamide] | 733
10 | C[C@@H](NC(=O)[C@H]1CC[C@H](NC(=O)c2ccc3[nH]c(-c4ccccc4)nc3c2)CC1)c1ccc(F)cc1 [Example 662, N-((1R,4r)-4-((R)-1-(4-fluorophenyl)ethylcarbamoyl)cyclohexyl)-2-phenyl-1H-benzo[d]imidazole-5-carboxamide] | 32500
11 | Cc1nc2cc(S(=O)(=O)N[C@H]3CC[C@H](C(=O)N[C@H](C)c4ccc(F)cc4)CC3)ccc2[nH]1 [Example 663, (1r,4R)-N-((R)-1-(4-fluorophenyl)ethyl)-4-(2-methyl-1H-benzo[d]imidazole-5-sulfonamido)cyclohexanecarboxamide] | 252
12 | C[C@@H]1CN(C(=O)[C@H]2CC[C@H](NS(=O)(=O)c3ccc4[nH]c(-c5ccccc5)nc4c3)CC2)C[C@H](C)O1 [Example 664, N-((1R,4r)-4-((2S,6R)-2,6-dimethylmorpholine-4-carbonyl)cyclohexyl)-2-phenyl-1H-benzo[d]imidazole-5-sulfonamide] | 54
13 | C[C@H]1C[C@H](C)CN(C(=O)[C@H]2CC[C@H](NS(=O)(=O)c3ccc4[nH]c(-c5ccccc5)nc4c3)CC2)C1 [Example 665, N-((1S,4r)-4-((3S,5S)-3,5-dimethylpiperidine-1-carbonyl)cyclohexyl)-2-phenyl-1H-benzo[d]imidazole-5-sulfonamide] | 40
14 | C[C@@H]1C[C@H](C)CN(C(=O)[C@H]2CC[C@H](NS(=O)(=O)c3ccc4[nH]c(-c5ccccc5)nc4c3)CC2)C1 [Example 666, N-((1R,4r)-4-((3S,5R)-3,5-dimethylpiperidine-1-carbonyl)cyclohexyl)-2-phenyl-1H-benzo[d]imidazole-5-sulfonamide] | 30
15 | CCOC(=O)Cc1nc2cc(S(=O)(=O)N[C@H]3CC[C@H](C(=O)N[C@H](C)c4ccc(F)cc4)CC3)ccc2[nH]1 [Example 667, ethyl 2-(5-(N-((1R,4r)-4-((R)-1-(4-fluorophenyl)ethylcarbamoyl)cyclohexyl)sulfamoyl)-1H-benzo[d]imidazol-2-yl)acetate] | 615
16 | C[C@@H](NC(=O)[C@H]1CC[C@H](NS(=O)(=O)c2ccc3[nH]c(CC(=O)O)nc3c2)CC1)c1ccc(F)cc1 [Example 668, 2-(5-(N-((1R,4r)-4-((R)-1-(4-fluorophenyl)ethylcarbamoyl)cyclohexyl)sulfamoyl)-1H-benzo[d]imidazol-2-yl)acetic acid] | 124
17 | COC1CCN(C(=O)[C@H]2CC[C@H](NS(=O)(=O)c3ccc4[nH]c(-c5ccccc5)nc4c3)CC2)CC1 [Example 669, N-((1r,4r)-4-(4-methoxypiperidine-1-carbonyl)cyclohexyl)-2-phenyl-1H-benzo[d]imidazole-5-sulfonamide] | 362
18 | Cn1ccc2cc(S(=O)(=O)N[C@H]3CC[C@H](C(=O)N[C@H](CO)c4ccccc4)CC3)ccc21 [Example 670, (1r,4S)-N-((S)-2-hydroxy-1-phenylethyl)-4-(1-methyl-1H-indole-5-sulfonamido)cyclohexanecarboxamide] | 66
19 | Cn1ccc2cc(S(=O)(=O)N[C@H]3CC[C@H](C(=O)N[C@@H](CO)c4ccccc4)CC3)ccc21 [Example 671, (1r,4R)-N-((R)-2-hydroxy-1-phenylethyl)-4-(1-methyl-1H-indole-5-sulfonamido)cyclohexanecarboxamide] | > 35000
20 | Cn1ccc2cc(S(=O)(=O)N[C@H]3CC[C@H](C(=O)N[C@H]4CCCCNC4=O)CC3)ccc21 [Example 672, (1r,4S)-4-(1-methyl-1H-indole-5-sulfonamido)-N-((S)-2-oxoazepan-3-yl)cyclohexanecarboxamide] | 639
21 | Cn1ccc2cc(S(=O)(=O)N[C@H]3CC[C@H](C(=O)N[C@H](CCO)c4ccccc4)CC3)ccc21 [Example 673, (1r,4R)-N-((R)-3-hydroxy-1-phenylpropyl)-4-(1-methyl-1H-indole-5-sulfonamido)cyclohexanecarboxamide] | 138
22 | COC[C@@H](NC(=O)[C@H]1CC[C@H](NS(=O)(=O)c2ccc3c(ccn3C)c2)CC1)c1ccccc1 [Example 674, (1r,4S)-N-((S)-2-methoxy-1-phenylethyl)-4-(1-methyl-1H-indole-5-sulfonamido)cyclohexanecarboxamide] | 771
23 | COCCN(C(=O)[C@H]1CC[C@H](NS(=O)(=O)c2ccc3[nH]c(-c4ccccc4)nc3c2)CC1)C(C)C [Example 675, (1r,4R)-N-isopropyl-N-(2-methoxyethyl)-4-(2-phenyl-1H-benzo[d]imidazole-5-sulfonamido)cyclohexanecarboxamide] | 105

Source: US8697739B2, “Bicyclic acetyl-CoA carboxylase inhibitors and uses thereof” (Novartis AG, priority 2010, dated 2014)
